From ChEMBL document CHEMBL1143476, “Synthesis and biological evaluation of 1,3-diphenylprop-2-yn-1-ones as dual inhibitors of cyclooxygenases and lipoxygenases” (Bioorg Med Chem Lett, 2005)

Columns and labels:
[1] = target: T1, Seed linoleate 13S-lipoxygenase-1 (Glycine max, UniProt P08170)
T1 sequence (P08170 whole entry): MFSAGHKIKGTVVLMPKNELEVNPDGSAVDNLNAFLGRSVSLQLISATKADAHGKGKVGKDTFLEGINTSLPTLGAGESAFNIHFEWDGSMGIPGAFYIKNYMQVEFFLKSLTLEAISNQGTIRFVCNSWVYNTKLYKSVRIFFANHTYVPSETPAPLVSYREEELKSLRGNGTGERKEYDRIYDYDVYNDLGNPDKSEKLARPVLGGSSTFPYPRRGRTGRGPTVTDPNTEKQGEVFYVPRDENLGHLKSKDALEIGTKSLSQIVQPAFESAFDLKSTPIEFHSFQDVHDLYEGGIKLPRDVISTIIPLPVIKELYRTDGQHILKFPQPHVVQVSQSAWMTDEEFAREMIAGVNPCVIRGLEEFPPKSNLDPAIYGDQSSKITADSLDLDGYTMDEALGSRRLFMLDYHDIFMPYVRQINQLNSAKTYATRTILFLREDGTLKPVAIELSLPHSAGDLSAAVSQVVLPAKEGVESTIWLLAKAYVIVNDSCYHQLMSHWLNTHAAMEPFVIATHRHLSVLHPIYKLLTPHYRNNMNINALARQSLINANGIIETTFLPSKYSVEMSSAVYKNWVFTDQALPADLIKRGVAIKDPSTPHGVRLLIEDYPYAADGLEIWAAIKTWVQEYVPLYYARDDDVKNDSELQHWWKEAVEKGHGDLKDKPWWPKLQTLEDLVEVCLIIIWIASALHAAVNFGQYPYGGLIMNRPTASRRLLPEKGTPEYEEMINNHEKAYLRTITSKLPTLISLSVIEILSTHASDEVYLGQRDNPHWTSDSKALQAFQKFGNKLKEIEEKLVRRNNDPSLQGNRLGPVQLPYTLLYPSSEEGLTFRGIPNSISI
Description: In vitro inhibitory activity against 15-lipoxygenase obtained from soybean

[2] = target: T2, Prostaglandin G/H synthase 1 (Ovis aries, UniProt P05979); assay: In vitro inhibitory activity against ovine cyclooxygenase 1
T2 sequence (P05979 whole entry): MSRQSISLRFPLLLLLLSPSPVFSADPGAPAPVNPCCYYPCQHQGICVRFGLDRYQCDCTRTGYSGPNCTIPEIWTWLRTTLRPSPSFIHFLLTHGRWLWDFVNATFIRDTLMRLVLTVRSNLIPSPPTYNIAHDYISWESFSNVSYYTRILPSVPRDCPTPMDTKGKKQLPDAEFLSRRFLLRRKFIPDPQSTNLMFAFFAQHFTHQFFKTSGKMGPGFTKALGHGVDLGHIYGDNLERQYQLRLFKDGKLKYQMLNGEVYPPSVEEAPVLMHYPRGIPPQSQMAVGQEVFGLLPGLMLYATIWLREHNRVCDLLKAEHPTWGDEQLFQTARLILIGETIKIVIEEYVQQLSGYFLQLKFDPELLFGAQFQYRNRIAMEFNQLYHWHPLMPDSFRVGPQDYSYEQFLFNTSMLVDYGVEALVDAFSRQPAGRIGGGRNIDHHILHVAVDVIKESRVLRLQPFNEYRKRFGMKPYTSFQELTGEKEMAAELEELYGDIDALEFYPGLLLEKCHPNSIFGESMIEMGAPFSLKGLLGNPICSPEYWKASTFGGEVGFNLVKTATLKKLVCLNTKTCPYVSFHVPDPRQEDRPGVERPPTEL

[3] = target: T1, Seed linoleate 13S-lipoxygenase-1; remark: listed apart in the source
Description: In vitro inhibitory activity against 5-lipoxygenase obtained from potato

Row | SMILES | IC50 [1] [µM] | IC50 [2] [µM] | IC50 [3] [µM]
1 | Cc1ccc(C(=O)C#Cc2ccc(S(C)(=O)=O)cc2)cc1 | > 10 | > 100 | > 10
2 | O=c1cc(-c2ccc(O)c(O)c2)oc2cc(O)cc(O)c12 [LUTEOLIN] | 3.2 |  | 
3 | CS(=O)(=O)c1ccc(C#CC(=O)c2ccc(C#N)cc2)cc1 |  | 31.5 | 
4 | COc1ccc(C(=O)C#Cc2ccc(S(C)(=O)=O)cc2)cc1O | 0.3 | 1 | > 10
5 | CS(=O)(=O)c1ccc(C#CC(=O)c2ccc(O)cc2)cc1 | 0.32 | 3.5 | 0.3
6 | COc1ccc(C(=O)C#Cc2ccc(S(C)(=O)=O)cc2)cc1 | 3.5 |  | > 10
7 | CS(=O)(=O)c1ccc(C#CC(=O)c2ccc(F)c(F)c2)cc1 | 3.2 | 3.1 | 0.4
8 | CS(=O)(=O)c1ccc(C#CC(=O)c2ccccc2)cc1 | > 10 | 1 | 
9 | CS(=O)(=O)c1ccc(C#CC(=O)c2ccc(C(F)(F)F)cc2)cc1 | > 10 | 3.1 | > 10
10 | CS(=O)(=O)c1ccc(C#CC(=O)c2cccc(O)c2)cc1 | 0.5 | > 100 | 0.3
11 | COc1cccc(C(=O)C#Cc2ccc(S(C)(=O)=O)cc2)c1 | > 10 | > 100 | 9
12 | CS(=O)(=O)c1ccc(C#CC(=O)c2ccc(F)cc2)cc1 | 1 | 30 | > 10
13 | COc1cc(C(=O)C#Cc2ccc(S(C)(=O)=O)cc2)cc(OC)c1OC | > 10 | > 100 | 7
14 | COc1cc(C(=O)C#Cc2ccc(S(C)(=O)=O)cc2)ccc1O | 0.1 | 1.1 | > 10
